In US7045300B2, “Lectin protein prepared from Maackia fauriei, process for preparing the same and the use thereof” (priority 2001, dated 2006):

Assays:
lectin MFA [1] = assay: Hemagglutination-inhibition assay of the lectin MFA with monosaccharide, disaccharide and glycoprotein; assay type: biochemical, Maackia fauriei; set-up: key to Minimum erythrocyte agglutination inhibition concentration: —: The negative sign (−) means that there is no hemagglutination-inhibition; details: for Minimum erythrocyte agglutination inhibition concentration: 6.25% mouse erythrocyte, lectin MFA diluted 128-fold; for inhibition of agglutination: starting from 1 mg/ml solution of each carbohydrate, 128-fold diluted lectin MFA
Procedure: In order to confirm that the lectin MFA of the present invention recognizes N-acetylneuraminic acid, hemagglutination-inhibition reaction was performed using monosaccharide, disaccharide and glycoprotein. 50 μl of a 128-fold diluted solution of lectin MFA in 0.15 M NaCl and 50 μl of each 1 mg/ml solution of monosaccharides (e.g., β-D-glucose, D-galactose, L-fucose, D-mannose, N-acetylneuraminic acid, N-glycolylneuraminic acid, N-acetyl-D-glucosamine, N-acetyl-D-galactosamine and methyl-α-D-glucopyranoside), disaccharide (e.g., α-lactose, β-lactose, D-lactose, β-gentiobiose, maltose, D-raffinose or D-cellobiose) and glycoprotein (e.g., fetuin and asialofetuin) in 0.15 M NaCl were added to the each well of a 96-well microplate. After the reaction for one hour or more at room temperature, 50 μl of the erythrocyte suspended in 0.15 M NaCl was added to each well and reacted for one hour at room temperature.
The negative sign (−) means that there is no hemagglutination-inhibition. […] NeuGc and NeuAc represent N-glycolylneuraminic acid and N-acetylneuraminic acid, respectively.

lectin MFA [2] = assay: as above; assay type: biochemical, Maackia fauriei; details: at 10 mM
[3] = Comparison of binding specificity of lectins, hemagglutination inhibition by N-acetylneuraminic acid; assay type: biochemical; details: 6.25% human B type erythrocyte; tested up to 10 mM
Procedure: (§1) The binding specificity of the MFA with Wheat germ agglutinin, Maackia amurensis aggulutinin, Limulus polyphemus lectin, and Sambucus niger agglutinin which have already been reported to recognize N-acetylneuraminic acid was determined by a hemagglutination inhibition response using 10 mM of N-acetylneuraminic acid and N-acetylneuraminic acid-binding fetuin.
(§2) The negative sign (−) means no hemagglutination inhibition up to 10 mM

fetuin = assay: Comparison of binding specificity of lectins, hemagglutination inhibition by fetuin; assay type: biochemical; details: 6.25% human B type erythrocyte
Procedure: as §1, §2

Molecule	Minimum erythrocyte agglutination inhibition concentration (lectin MFA [1]; dash = no inhibition)	other results
OC[C@H]1O[C@@H](O[C@H]2[C@H](O)[C@@H](O)[C@H](O)O[C@@H]2CO)[C@H](O)[C@@H](O)[C@@H]1O [D-cellobiose]	—	
O=C[C@H](O)[C@@H](O)[C@@H](O)[C@H](O)CO [D-galactose]	—	
OC[C@H]1O[C@@H](O[C@H]2[C@H](O)[C@@H](O)C(O)O[C@@H]2CO)[C@H](O)[C@@H](O)[C@H]1O (stereo partly drawn) [D-lactose]	—	
O=C[C@@H](O)[C@@H](O)[C@H](O)[C@H](O)CO [D-mannose]	—	
OC[C@H]1O[C@H](OC[C@H]2O[C@H](O[C@]3(CO)O[C@H](CO)[C@@H](O)[C@@H]3O)[C@H](O)[C@@H](O)[C@@H]2O)[C@H](O)[C@@H](O)[C@H]1O [D-raffinose]	—	
C[C@H](O)[C@@H](O)[C@@H](O)[C@H](O)C=O [L-fucose]	—	
OC[C@H]1O[C@H](O[C@H]2[C@H](O)[C@@H](O)[C@H](O)O[C@@H]2CO)[C@H](O)[C@@H](O)[C@@H]1O [Maltose]	—	
CO[C@H]1O[C@H](CO)[C@@H](O)[C@H](O)[C@H]1O [Methyl-α-D-glucopyranoside]	—	
CC(=O)N[C@H]1C(O)O[C@H](CO)[C@H](O)[C@@H]1O (stereo partly drawn) [N-acetyl-D-galactosamine]	—	
CC(=O)N[C@H]1C(O)O[C@H](CO)[C@@H](O)[C@@H]1O (stereo partly drawn) [N-acetyl-D-glucosamine]	—	
CC(=O)N[C@H]1C(O)O[C@H](CO)[C@@H](O[C@@H]2O[C@H](CO)[C@H](O)[C@H](O)[C@H]2O)[C@@H]1O (some centres unmarked) [N-acetylactosamine]		hemagglutination inhibition (lectin MFA [2]): did not show hemagglutination inhibition
CC(=O)N[C@H]1[C@H]([C@H](O)[C@H](O)CO)OC(O)(C(=O)O)C[C@@H]1O (some centres unmarked) [N-acetylneuraminic acid]		Minimum erythrocyte agglutination inhibition concentration (lectin MFA [1]): 10.0 mM; inhibition of agglutination (lectin MFA [1]): inhibited the agglutination
O=C(CO)N[C@H]1[C@H]([C@H](O)[C@H](O)CO)OC(O)(C(=O)O)C[C@@H]1O (some centres unmarked) [N-glycolylneuraminic acid]	—	
OC[C@H]1O[C@@H](O[C@H]2[C@H](O)[C@@H](O)[C@@H](O)O[C@@H]2CO)[C@H](O)[C@@H](O)[C@H]1O [α-lactose]	—	
OC[C@H]1O[C@@H](O)[C@H](O)[C@@H](O)[C@@H]1O [β-D-glucose]	—	
OC[C@H]1O[C@@H](OC[C@H]2O[C@@H](O)[C@H](O)[C@@H](O)[C@@H]2O)[C@H](O)[C@@H](O)[C@@H]1O [β-gentiobiose]	—	
OC[C@H]1O[C@@H](O[C@H]2[C@H](O)[C@@H](O)[C@H](O)O[C@@H]2CO)[C@H](O)[C@@H](O)[C@H]1O [β-lactose]	—	
Wheat germ agglutinin		Minimum hemagglutination-inhibition concentration, N-acetylneuraminic acid [3]: — (The negative sign (−) means no hemagglutination inhibition up to 10 mM); Minimum hemagglutination-inhibition concentration, Fetuin (fetuin): 207 µM
Fetuin: glycoprotein containing N-acetylneuraminic acid (protein, UniProt P12763 19-359, looked up) Alpha-2-HS-glycoprotein: IPLDPVAGYKEPACDDPDTEQAALAAVDYINKHLPRGYKHTLNQIDSVKVWPRRPTGEVYDIEIDTLETTCHVLDPTPLANCSVRQQTQHAVEGDCDIHVLKQDGQFSVLFTKCDSSPDSAEDVRKLCPDCPLLAPLNDSRVVHAVEVALATFNAESNGSYLQLVEISRAQFVPLPVSVSVEFAVAATDCIAKEVVDPTKCNLLAEKQYGFCKGSVIQKALGGEDVRVTCTLFQTQPVIPQPQPDGAEAEAPSAVPDAAGPTPSAAGPPVASVVVGPSVVAVPLPLHRAHYDLRHTFSGVASVESSSGEAFHVGKTPIVGQPSIPGGPVRLCPGRIRYFKI		Minimum erythrocyte agglutination inhibition concentration (lectin MFA [1]): 0.0052 mM; inhibition of agglutination (lectin MFA [1]): inhibited the agglutination
Asialofetuin: glycoprotein tested as hemagglutination inhibitor (protein, UniProt P12763 19-359, looked up, desialylated) Alpha-2-HS-glycoprotein: IPLDPVAGYKEPACDDPDTEQAALAAVDYINKHLPRGYKHTLNQIDSVKVWPRRPTGEVYDIEIDTLETTCHVLDPTPLANCSVRQQTQHAVEGDCDIHVLKQDGQFSVLFTKCDSSPDSAEDVRKLCPDCPLLAPLNDSRVVHAVEVALATFNAESNGSYLQLVEISRAQFVPLPVSVSVEFAVAATDCIAKEVVDPTKCNLLAEKQYGFCKGSVIQKALGGEDVRVTCTLFQTQPVIPQPQPDGAEAEAPSAVPDAAGPTPSAAGPPVASVVVGPSVVAVPLPLHRAHYDLRHTFSGVASVESSSGEAFHVGKTPIVGQPSIPGGPVRLCPGRIRYFKI	—	
